# Reference: patent US9802897B2, “Amidopyridinol derivative or pharmaceutically acceptable salt thereof and pharmaceutical composition comprising same as active component” (Research Cooperation Foundation of Yeungnam University, priority 2013, dated 2017)
# Where “and” joins values, the source holds several entries; their conditions need not be identical. Equal entries are not always repeated.
# What was measured:
# TNBS-induced colitis = TNBS-induced colitis model of inflammatory bowel disease; format: in vivo, rat (Sprague Dawley); conditions: for conditions of the large intestine observed with the naked eye / changes in weights of the rat: TNBS-induced rats; for weight of the large intestine: vs TNBS-treated group
# Text: To see alleviating effects of the compounds of the present invention on colitis, an animal model induced by TNBS and having colitis was used for the experiments. The animal used herein was a 7 to 8 week Sprague Dawley species purchased from Samtaco Bio Korea. After the purchase, the animal was stabilized with typical solid feed for 2 days before being used for the experiments. The animal was freely supplied with feed and water during the experiments, and stayed in conditions maintaining a cage temperature of about 25±1° C. and relative humidity of about 50±10%. The cage was equipped with an automatic lightening system to adjust 12-hour light-dark cycle.
# In regard to the experimental groups, 5 groups (i.e., a control group, a group administered with TNBS only, […], […], […]) were used according to the randomized block design, wherein each group consists of 6 rats having an average weight of about 180±10 g. The rats that had been fasting for 24 hours were anesthetized with diethylether (Et2O), and then, a 1 mL syringe connected with a polyethylene catheter was used to slowly inject 0.8 mL of 3% TNBS into colonic enema through the anus, wherein TNBS was diluted with 50% (v/v) ethanol. To prevent leakage of 3% TNBS from the anus, the rats turned upside down and let stand for 60 minutes.
# In regard to the control group, only a vehicle (50% (v/v) ethanol) was injected into the rats of the control group in the same manner as in preparation of other experimental groups. To examine the effects of the drug, after being fasting for 24 hours, the rats were administered with drugs, i.e., 0.1 mg/kg or 1.0 mg/kg of Compounds 8a and 8j, once a day at a certain time from the second day to the fifth day of the TNBS treatment. As a comparative experimental material, 5-ASA, which is an active metabolite of sulfasalazine that is the most well-known as a therapeutic agent for IBDs, was used as a positive control group.
# All the rats were scarified on the seventh day of the TNBS administration. […] After the large intestine of the rat was harvested, a 5 to 6 cm-long tissue from was cut from the anus to a size of 1 cm, and then, subjected to measure an intestine weight and activation of myeloperoxidase (MPO) in the tissue, and to perform a biopsy. In addition, changes in weight of all the animals used in the experiments were observed by using a digital mass meter, beginning from the fasting step, the TNBS administration, and the drug administration. In consideration of the management and use of laboratory animals, the animal experiments were followed according to institutional guidelines from Laboratory Animal Resources, Yeungnam University.
# To measure the activation of MPO, an MPO assay was used. The colorectal tissue was washed with cold PBS, and a weight thereof was measured. Then, 200 μL of lysis buffer (pH7.4, 200 mM NaCl, 5 mM EDTA, 10 mM Tris, 10% glycerol) was added for each 10 mg of the weight of the tissue, and then, the tissue homogenizer (Bio homogenizer M133, BIOSPEC PRODUCTS Inc. USA) was used for 30 seconds in terms of homogenization. The homogenized sample was subjected to centrifugation (1500×g) twice, each for 15 minutes. The supernatant obtained therefrom was used to measure the activation of MPO by using the MPO ELISA kit (HK210, Hycult Biotechnology, Netherlands). 100 μL of the supernatant was added to the 96-well plates, each of which well was coated with an anti-mouse MPO antibody, to allow a reaction at room temperature for 1 hour, followed by being washed with PBS three times. Here, 100 μL of a reconstituted tracer was added thereto to allow a reaction at room temperature for 1 hour, followed by being washed three times repeatedly. Then, 100 μL of a reptavidin-peroxidase conjugate was added thereto to allow a reaction at room temperature for 1 hours, followed being washed. Then, 100 μL of a TMB substrate solution was added thereto to allow a reaction for 30 minutes. […]
# HT-29 cells / U937 cells = experiment: TNF-α-induced adhesion of HT-29 intestinal epithelial cells and U937 mononuclear cells; format: cell-based, human; conditions: Homo sapiens, TNF-α 10 ng/ml, read-out: Inhibitory rates (%); for inhibition at 1 µM: pre-treated 1 hour
# Method: HT-29 cells were cultured in a 24-well plate at a concentration of […] cells/cm^2, and meanwhile, amidopyridinol compounds 8a to 8z were pre-treated for 1 hour at each concentration in a serum-free medium supplemented only with 1% PS. Next, 10 ng/ml of TNF-α was treated therewith to allow a reaction at a temperature of 37° C. for 3 hours. After the completion of the reaction, the medium of the HT-29 cells was removed, and then, the HT-29 cells were washed with PBS once. Afterwards, U937 cells, which were treated and reacted with 10 μg/mL of BCECF-AM at a temperature of 37° C. for 30 minutes, were allowed to react with the HT-29 cells at temperature of 37° C. for 1 hour. Then, to remove U937 cells that were not adhered to the HT-29 cells, the reacted cells were washed with PBS twice. In terms of cell dissolution, 0.1% Triton X-100 in 0.1M Tris was allowed to react with the cells for 30 minutes at room temperature, and then, the cells were subjected to quantify by measuring fluorescence thereof using the Fluostar optima microplate reader (BMG Labtechnologies, Germany).
# [1] = system: VEGF-induced angiogenesis in chicken chorioallantoic membrane (CAM); experiment: CAM analysis of VEGF-induced angiogenesis; format: in vivo; conditions: for inhibition in vivo at 0.01 nmol/CAM: Gallus gallus, 72 h, VEGF (20 ng/CAM) + Compound (0.01 nmol/CAM), number of blood vessels after 3 days, read-out: Inhibitory rates (%)
# Method: To confirm inhibitory effects on angiogenesis through in vivo experiments, the chorioallantoic membrane (CAM) analysis was carried out (refer to Nguyen M et al., Microvascular Res., 47, pp 31-40, 1994). A fertilized egg of a chicken was cultured in conditions maintaining a temperature of 37° C. and relative humidity of 55%. On the 10th day of the culturing, a first small hole was made on an air sac part using a hypodermic needle (Green Cross Medical Corp., Korea), and then, a second hole was made on a flat part of the fertilized egg to make a window thereon. Air was removed through the first hole, i.e., the air sac part, and accordingly, the CAM was separated from the shell of the fertilized egg. Then, a grinding wheel (Multipro 395JA, Dremel, Mexico) was used to cut the air sac part, thereby making a window thereon. Next, the whatman filter disk #1 (Whatman Company, USA) was treated with 3 mg/mL of cortisone acetate, dried, and then, wet by VEGF at a concentration of 20 ng/CAM. The filter disk was placed on blood vessels through the window, and then, compounds prepared according to Examples above were each dissolved in DMSO, diluted with PBS, and then, treated for each concentration. After 3 days of treating the compounds, the CAM part on which the filter disk was placed was isolated, and then, washed with PBS. The Stemi SV6 stereomicroscope (Carl Zeiss, Germany) and the Image-Pro Plus software (Media Cybernetics; Silver Spring, Md., USA) were used to capture images of the CAM part, so as to measure the number of the blood vessels and to analyze data obtained therefrom.
# cathepsin S = experiment: RT-PCR of cathepsin S gene expression in MDA-MB-231 cells; format: cell-based; conditions: Homo sapiens, MDA-MB-231, 24 h, screening, 1 μM of each compound; MDA-MB-231, RT-PCR; read-out: Inhibition rate of expression of cathepsin S (%)
# Method: Each compound of the present invention was treated with breast cancer cells (1×10^5 cell/cm^2), e.g., MDA-MB-231, and then, cultured at a temperature of 37° C. for 24 hours in a cell incubator. Afterwards, a trizole reagent was used to extract the entire mRNA therefrom. 24 hours later, the culture medium was removed therefrom, 1 mL of the triazole reagent was added to each well, and then, the cell elusion was transferred to a 1.5 mL tube. After 200 μl of chloroform was added to each sample, the samples were subjected to centrifugation at a temperature of 4° C., at 12,000 g, for 15 minutes. 500 μl of the supernatant obtained therefrom was transferred to a new tube. After 500 μl of isopropylalcohol was added to each sample, the samples were subjected to centrifugation at a temperature of 4° C., at 12,000 g, for 15 minutes. The supernatant obtained therefrom was removed from each sample, and then, the samples were washed with 75% ethanol to clean mRNA while the precipitants were dried. Then, mRNA extracted therefrom was dissolved in RNase-free water, followed by being heated at a temperature of 55° C. for 10 minutes.
# After the RNA quantification, the GoScript™ reverse transcription system (Promega Corporation, Madison, Wis., USA) was used to synthesize cDNA. Here, PCR was performed by using TaKaRa Taq™ (Takara bio Inc., Shiga, Japan), wherein a primer set of cathepsin S consists of a forward primer having SEQ ID NO: 1 (forward sequence: 5′-GCAGTGGCACAGTTGCATAA-3′) and a reverse primer having SEQ ID NO: 2 (reverse sequence: 5′-AGCACCACAAGAACCCATGT-3′). After the PCR product was subjected to agarose gel electrophoresis, the PCR product was stained with ethidium bromide (0.5 μg/ml), thereby obtaining images thereof by using the gel imaging system (UVP, Cambridge, UK). Here, the PCR product was quantified based on glyceraldehyde 3-phosphate dehydrogenase (GAPDH). A GAPDH primer used herein consists of a forward primer having SEQ ID NO: 3 (forward sequence: 5′-GGTGAAGGTCGGAGTCAACG-3′) and a reverse primer having SEQ ID NO: 4 (reverse sequence: 5′-CAAAGTTGTCATGGATGACC-3′).
# Furthermore, to screen other amidopyridinol derivatives that inhibit metastasis of breast cancer cells, inhibitory effects on expression of cathepsin S genes were reviewed by treating 1 μM of each compound, in the same manner as in Experimental Example 9.
# A549 lung cancer cells = experiment: CAM inoculated with A549 lung cancer cells: angiogenesis and tumor growth; format: in vivo, chicken; conditions: for Inhibition rates of angiogenesis (%) / Inhibition rates of tumor growth (%): A549 on CAM, 5 days
# Method: To confirm inhibitory effects on angiogenesis through in vivo experiments, the CAM analysis was carried out (refer to Nguyen M et al., Microvascular Res., 47, pp 31-40, 1994). A fertilized egg of a chicken was cultured in conditions maintaining a temperature of 37° C. and relative humidity of 55%. On the 9th day of the culturing, a first small hole was made on an air sac part using a hypodermic needle (Green Cross Medical Corp., Korea), and then, a second hole was made on a flat part of the fertilized egg to make a window thereon. Air was removed through the first hole, i.e., the air sac part, and accordingly, the CAM was separated from the shell of the fertilized egg. Then, a grinding wheel (Multipro 395JA, Dremel, Mexico) was used to cut the air sac part, thereby making a window thereon. Meanwhile, A549 lung cancer cells were mixed with matrigel at a ratio of 1:1, and then, the mixture was treated with Compounds 8a, 8b, and 8g, respectively, followed by being inoculated at a density of 1.5×10^6 cells/CAM.
# After 5 days of the inoculation, the CAM part on which tumors were formed was isolated, and then, washed with PBS. The Stemi SV6 stereomicroscope (Carl Zeiss, Germany) and the Image-Pro Plus software (Media Cybernetics; Silver Spring, Md., USA) were used to capture images of the CAM part, so as to measure the number of the blood vessels and to analyze data obtained therefrom.
structure (smiles),measurement,setting,value
"Nc1ccc(O)c(C(=O)O)c1 [Compound 5-ASA, 5-aminosalicylic acid, reference compound]",activation of myeloperoxidase (MPO) in colorectal tissue,TNBS-induced colitis; 100 mg/kg,significantly decreased activation of MPO
same,conditions of the large intestine observed with the naked eye,TNBS-induced colitis; 100 mg/kg,significantly inhibited
same,weight of the large intestine,TNBS-induced colitis; 100 mg/kg,significantly decreased
same,changes in weights of the rat,TNBS-induced colitis; 300 mg/kg,slowly recovered on the third day
same,inhibition at 20000 µM,HT-29 cells / U937 cells; 20 mM,46.8%
"Cc1nc(NC(=O)C2CCCC2)c(C)c(C)c1O [Compound 8g, N-(5-hydroxy-3,4,6-trimethylpyridine-2-yl)cyclopentane carboxamide]",inhibition in vivo at 0.01 nmol/CAM,[1],81.8 ± 8.4%
same,ID50 against inhibition of angiogenesis,[1]; VEGF-induced CAM angiogenesis,0.9 pg/CAM and 3.6 fmol/CAM
same,inhibition at 1 µM,cathepsin S,≥ 50%
same,Inhibition rates of angiogenesis (%),A549 lung cancer cells; 0.001 pmol/CAM,30.9 ± 8.5 %
same,Inhibition rates of tumor growth (%),A549 lung cancer cells; 0.001 pmol/CAM,13.2 ± 3.5%
same,Inhibition rates of angiogenesis (%),A549 lung cancer cells; 0.01 pmol/CAM,48.4 ± 4.1 %
same,Inhibition rates of tumor growth (%),A549 lung cancer cells; 0.01 pmol/CAM,24.0 ± 1.6 %
same,Inhibition rates of angiogenesis (%),A549 lung cancer cells; 0.1 pmol/CAM,54.4 ± 6.7 %
same,Inhibition rates of tumor growth (%),A549 lung cancer cells; 0.1 pmol/CAM,45.1 ± 3.1 %
same,Inhibition rates of angiogenesis (%),A549 lung cancer cells; 1.0 pmol/CAM,58.1 ± 6.8 %
same,Inhibition rates of tumor growth (%),A549 lung cancer cells; 1.0 pmol/CAM,62.7 ± 2.3 %
same,inhibitory effects on angiogenesis and tumor growth (in words),A549 lung cancer cells; at each density,"inhibited angiogenesis upon tumorigenesis, as well as tumor growth"
same,inhibition at 1 µM,HT-29 cells / U937 cells,42.8%
"Cc1nc(NC(=O)CCc2ccccc2)c(C)c(C)c1O [Compound 8j, N-(5-hydroxy-3,4,6-trimethylpyridine-2-yl)-3-phenylpropanamide]",inhibition in vivo at 0.01 nmol/CAM,[1],74.2 ± 3.9%
same,changes in weights of the rat,TNBS-induced colitis; 1.0 mg/kg once a day,significant weight recovery and increased weight
same,conditions of the large intestine observed with the naked eye,TNBS-induced colitis; 1.0 mg/kg,excellent inhibitory effects on swelling and congestion
same,weight of the large intestine,TNBS-induced colitis; 1.0 mg/kg,significantly decreased
same,inhibition at 1 µM,HT-29 cells / U937 cells,72.5%
